Assay results reported in PubChem BioAssay AID1963842 (Molecular Pharmacology Branch, DTP, NCI, 2024).

Test system: 677734-321-R-J1-PDC complex spheroid viability
Assay: Anticancer human tumor 677734-321-R-J1-PDC patient-derived soft tissue sarcoma cell line growth inhibition [POLQ]
Settings: for IC50: curve of first compound; for viability, T/C: stronger effect = lower value
In short: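 Patient-derived tumour cells were co-cultured with HUVEC and mesenchymal stem cells as multicellular spheroids at 37 °C. They were treated with POLQ inhibitors (novobiocin, ART-558, RP6685) alone or combined with other agents. Top concentrations were at or near clinical Cmax (otherwise 10 microM; SN-38 at 1 microM), decreasing in half-log steps.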

[1] = second compound 0.0316 µM, first compound 0.0316 µM
[2] = second compound 0.0316 µM, first compound 0.1 µM
[3] = second compound 0.0316 µM, first compound 0.316 µM
[4] = second compound 0.0316 µM, first compound 1 µM
[5] = second compound 0.0316 µM, first compound 3.16 µM
[6] = second compound 0.0316 µM, first compound 10 µM
[7] = second compound 0.1 µM, first compound 0.0316 µM
[8] = second compound 0.1 µM, first compound 0.1 µM
[9] = second compound 0.1 µM, first compound 0.316 µM
[10] = second compound 0.1 µM, first compound 1 µM
[11] = second compound 0.1 µM, first compound 3.16 µM
[12] = second compound 0.1 µM, first compound 10 µM
[13] = second compound 0.316 µM, first compound 0.0316 µM
[14] = second compound 0.316 µM, first compound 0.1 µM
[15] = second compound 0.316 µM, first compound 0.316 µM
[16] = second compound 0.316 µM, first compound 1 µM
[17] = second compound 0.316 µM, first compound 3.16 µM
[18] = second compound 0.316 µM, first compound 10 µM
[19] = second compound 1 µM, first compound 0.0316 µM
[20] = second compound 1 µM, first compound 0.1 µM
[21] = second compound 1 µM, first compound 0.316 µM
[22] = second compound 1 µM, first compound 1 µM
[23] = second compound 1 µM, first compound 3.16 µM
[24] = second compound 1 µM, first compound 10 µM
[25] = second compound 3.16 µM, first compound 0.0316 µM
[26] = second compound 3.16 µM, first compound 0.1 µM
[27] = second compound 3.16 µM, first compound 0.316 µM
[28] = second compound 3.16 µM, first compound 1 µM
[29] = second compound 3.16 µM, first compound 3.16 µM
[30] = second compound 3.16 µM, first compound 10 µM
[31] = second compound 10 µM, first compound 0.0316 µM
[32] = second compound 10 µM, first compound 0.1 µM
[33] = second compound 10 µM, first compound 0.316 µM
[34] = second compound 10 µM, first compound 1 µM
[35] = second compound 10 µM, first compound 3.16 µM
[36] = second compound 10 µM, first compound 10 µM
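Also: spheroids exposed to compounds for one week.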
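For viability, T/C in this document: 100% = vehicle DMSO treated spheroids.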

`C#Cc1c(F)ccc2cc(O)cc(-c3ncc4c(N5CC6CCC(C5)N6)nc(OCC56CCCN5CC(F)C6)nc4c3F)c12` (centres undefined) + Nc1ccc(C#CCN(C(=O)Cc2ncc(C(F)(F)F)cc2C(F)(F)F)c2ccc(F)cc2)nn1 was tested, and the IC50 (second compound 0.0316 µM) was over 10 µM, the IC50 (second compound 0.1 µM) was over 10 µM and the IC50 (second compound 0.316 µM) was over 10 µM. It also gave an IC50 (second compound 1 µM) of over 10 µM, an IC50 (second compound 3.16 µM) of over 10 µM and an IC50 (second compound 10 µM) of over 10 µM. For the same molecule, the viability, T/C [1] was 104%, the viability, T/C [2] was 117% and the viability, T/C [3] was 115%. It also gave a viability, T/C [4] of 117%, a viability, T/C [5] of 115% and a viability, T/C [6] of 98.7%. The viability, T/C [7] was 106%, the viability, T/C [8] was 116% and the viability, T/C [9] was 112%. It also gave a viability, T/C [10] of 118%, a viability, T/C [11] of 98.4% and a viability, T/C [12] of 79.6%. It also gave a viability, T/C [13] of 113%, a viability, T/C [14] of 124% and a viability, T/C [15] of 96.9%. For the same molecule, the viability, T/C [16] was 110%, the viability, T/C [17] was 103% and the viability, T/C [18] was 103%. It also gave a viability, T/C [19] of 105%, a viability, T/C [20] of 104% and a viability, T/C [21] of 109%. For the same molecule, the viability, T/C [22] was 114%, the viability, T/C [23] was 119% and the viability, T/C [24] was 94.1%. It also gave a viability, T/C [25] of 114%, a viability, T/C [26] of 98% and a viability, T/C [27] of 122%. The viability, T/C [28] was 111%, the viability, T/C [29] was 96.8% and the viability, T/C [30] was 96.5%. The viability, T/C [31] was 107%, the viability, T/C [32] was 99.8% and the viability, T/C [33] was 112%. The viability, T/C [34] was 108%, the viability, T/C [35] was 94.8% and the viability, T/C [36] was 88.8%.
With `CCc1cc2c(N3CCc4c(cc(Cn5ccnc5)cc4-c4cn(C)nc4C(F)(F)F)C3=O)cc(C)nc2c(OC)n1` + Nc1ccc(C#CCN(C(=O)Cc2ncc(C(F)(F)F)cc2C(F)(F)F)c2ccc(F)cc2)nn1 the IC50 (second compound 0.0316 µM) was over 10 µM, the IC50 (second compound 0.1 µM) was 6.09 µM and the IC50 (second compound 0.316 µM) was 7.57 µM. For the same molecule, the IC50 (second compound 1 µM) was 5.9 µM, the IC50 (second compound 3.16 µM) was 5.71 µM and the IC50 (second compound 10 µM) was 4.5 µM. The viability, T/C [1] was 100%, the viability, T/C [2] was 101% and the viability, T/C [3] was 85%. The viability, T/C [4] was 76.3%, the viability, T/C [5] was 63.8% and the viability, T/C [6] was 61.8%. It also gave a viability, T/C [7] of 102%, a viability, T/C [8] of 94.2% and a viability, T/C [9] of 77.6%. The viability, T/C [10] was 78.5%, the viability, T/C [11] was 53.4% and the viability, T/C [12] was 45.1%. It also gave a viability, T/C [13] of 104%, a viability, T/C [14] of 93.6% and a viability, T/C [15] of 96.4%. The viability, T/C [16] was 91.2%, the viability, T/C [17] was 73.2% and the viability, T/C [18] was 42.1%. For the same molecule, the viability, T/C [19] was 116%, the viability, T/C [20] was 88% and the viability, T/C [21] was 100%. It also gave a viability, T/C [22] of 90.1%, a viability, T/C [23] of 60% and a viability, T/C [24] of 39.1%. It also gave a viability, T/C [25] of 107%, a viability, T/C [26] of 97.3% and a viability, T/C [27] of 96.6%. For the same molecule, the viability, T/C [28] was 95.2%, the viability, T/C [29] was 65% and the viability, T/C [30] was 35.6%. It also gave a viability, T/C [31] of 110%, a viability, T/C [32] of 88.5% and a viability, T/C [33] of 91.4%. For the same molecule, the viability, T/C [34] was 86.5%, the viability, T/C [35] was 55.5% and the viability, T/C [36] was 29.8%.
